Laboratory results from ChEMBL document CHEMBL5442219.

Experiments:
Conditions in all cases: Compound concentration 10 µM
[1] = target: T1, Alpha-2A adrenergic receptor (Homo sapiens) (UniProt P08913)
T1 sequence (whole entry): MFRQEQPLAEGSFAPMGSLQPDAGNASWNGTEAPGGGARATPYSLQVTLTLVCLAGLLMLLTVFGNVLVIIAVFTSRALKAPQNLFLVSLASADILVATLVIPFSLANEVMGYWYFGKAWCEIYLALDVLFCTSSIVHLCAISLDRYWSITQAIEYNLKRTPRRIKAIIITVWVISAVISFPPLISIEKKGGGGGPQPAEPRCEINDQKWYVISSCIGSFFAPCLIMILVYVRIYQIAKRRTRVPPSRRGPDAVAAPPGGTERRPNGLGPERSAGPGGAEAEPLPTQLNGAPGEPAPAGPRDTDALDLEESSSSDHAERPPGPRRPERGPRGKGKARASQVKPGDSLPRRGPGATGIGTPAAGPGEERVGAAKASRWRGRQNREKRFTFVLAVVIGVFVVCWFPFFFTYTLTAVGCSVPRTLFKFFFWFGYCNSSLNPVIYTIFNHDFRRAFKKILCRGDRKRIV
Description: PDSP Primary Binding target: ADRA2A - Compounds are tested at 10 uM concentration, plate are incubated at room temperature in the dark for 90 minutes. Reaction are stopped by vacuum filtration onto 0.3% polyethyleneimine soaked filter mats using Filtermate harvester. Scintilation cocktail is then melted onto microwave-dried filters on a hot plate and the radio activity is counted in Microbia counter.

[2] = target: Beta-2 adrenergic receptor (Homo sapiens) (UniProt P07550)
Description: PDSP Primary Binding target: ADRB2 - Compounds are tested at 10 uM concentration, plate are incubated at room temperature in the dark for 90 minutes. Reaction are stopped by vacuum filtration onto 0.3% polyethyleneimine soaked filter mats using Filtermate harvester. Scintilation cocktail is then melted onto microwave-dried filters on a hot plate and the radio activity is counted in Microbia counter.

[3] = target: T2, Muscarinic acetylcholine receptor M1 (Homo sapiens) (UniProt P11229)
T2 sequence (whole entry): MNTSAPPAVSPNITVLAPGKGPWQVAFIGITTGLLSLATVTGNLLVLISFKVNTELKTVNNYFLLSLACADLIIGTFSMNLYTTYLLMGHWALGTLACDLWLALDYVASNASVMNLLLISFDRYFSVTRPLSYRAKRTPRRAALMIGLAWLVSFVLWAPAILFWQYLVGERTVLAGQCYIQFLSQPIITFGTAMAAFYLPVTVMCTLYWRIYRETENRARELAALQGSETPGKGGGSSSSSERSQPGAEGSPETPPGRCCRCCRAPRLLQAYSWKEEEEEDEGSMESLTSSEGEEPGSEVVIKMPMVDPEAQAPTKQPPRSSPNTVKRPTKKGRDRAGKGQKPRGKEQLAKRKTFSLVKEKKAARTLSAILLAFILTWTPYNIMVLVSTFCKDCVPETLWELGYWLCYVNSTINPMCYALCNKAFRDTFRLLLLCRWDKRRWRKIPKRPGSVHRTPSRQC
Description: PDSP Primary Binding target: CHRM1 - Compounds are tested at 10 uM concentration, plate are incubated at room temperature in the dark for 90 minutes. Reaction are stopped by vacuum filtration onto 0.3% polyethyleneimine soaked filter mats using Filtermate harvester. Scintilation cocktail is then melted onto microwave-dried filters on a hot plate and the radio activity is counted in Microbia counter.

[4] = target: D(3) dopamine receptor (Homo sapiens) (UniProt P35462)
Description: PDSP Primary Binding target: DRD3 - Compounds are tested at 10 uM concentration, plate are incubated at room temperature in the dark for 90 minutes. Reaction are stopped by vacuum filtration onto 0.3% polyethyleneimine soaked filter mats using Filtermate harvester. Scintilation cocktail is then melted onto microwave-dried filters on a hot plate and the radio activity is counted in Microbia counter.

[5] = target: 5-hydroxytryptamine receptor 2A (Homo sapiens) (UniProt P28223)
Description: PDSP Primary Binding target: HTR2A - Compounds are tested at 10 uM concentration, plate are incubated at room temperature in the dark for 90 minutes. Reaction are stopped by vacuum filtration onto 0.3% polyethyleneimine soaked filter mats using Filtermate harvester. Scintilation cocktail is then melted onto microwave-dried filters on a hot plate and the radio activity is counted in Microbia counter.

[6] = target: 5-hydroxytryptamine receptor 2B (Homo sapiens) (UniProt P41595)
Description: PDSP Primary Binding target: HTR2B - Compounds are tested at 10 uM concentration, plate are incubated at room temperature in the dark for 90 minutes. Reaction are stopped by vacuum filtration onto 0.3% polyethyleneimine soaked filter mats using Filtermate harvester. Scintilation cocktail is then melted onto microwave-dried filters on a hot plate and the radio activity is counted in Microbia counter.

[7] = target: Mu-type opioid receptor (Homo sapiens) (UniProt P35372)
Description: PDSP Primary Binding target: OPRM1 - Compounds are tested at 10 uM concentration, plate are incubated at room temperature in the dark for 90 minutes. Reaction are stopped by vacuum filtration onto 0.3% polyethyleneimine soaked filter mats using Filtermate harvester. Scintilation cocktail is then melted onto microwave-dried filters on a hot plate and the radio activity is counted in Microbia counter.

[8] = target: Beta-3 adrenergic receptor (Homo sapiens) (UniProt P13945)
Description: PDSP Primary Binding target: ADRB3 - Compounds are tested at 10 uM concentration, plate are incubated at room temperature in the dark for 90 minutes. Reaction are stopped by vacuum filtration onto 0.3% polyethyleneimine soaked filter mats using Filtermate harvester. Scintilation cocktail is then melted onto microwave-dried filters on a hot plate and the radio activity is counted in Microbia counter.

[9] = target: D(1A) dopamine receptor (Homo sapiens) (UniProt P21728)
Description: PDSP Primary Binding target: DRD1 - Compounds are tested at 10 uM concentration, plate are incubated at room temperature in the dark for 90 minutes. Reaction are stopped by vacuum filtration onto 0.3% polyethyleneimine soaked filter mats using Filtermate harvester. Scintilation cocktail is then melted onto microwave-dried filters on a hot plate and the radio activity is counted in Microbia counter.

[10] = target: 5-hydroxytryptamine receptor 1E (Homo sapiens) (UniProt P28566)
Description: PDSP Primary Binding target: HTR1E - Compounds are tested at 10 uM concentration, plate are incubated at room temperature in the dark for 90 minutes. Reaction are stopped by vacuum filtration onto 0.3% polyethyleneimine soaked filter mats using Filtermate harvester. Scintilation cocktail is then melted onto microwave-dried filters on a hot plate and the radio activity is counted in Microbia counter.

[11] = target: 5-hydroxytryptamine receptor 6 (Homo sapiens) (UniProt P50406)
Description: PDSP Primary Binding target: HTR6 - Compounds are tested at 10 uM concentration, plate are incubated at room temperature in the dark for 90 minutes. Reaction are stopped by vacuum filtration onto 0.3% polyethyleneimine soaked filter mats using Filtermate harvester. Scintilation cocktail is then melted onto microwave-dried filters on a hot plate and the radio activity is counted in Microbia counter.

[12] = target: T3, Muscarinic acetylcholine receptor M5 (Homo sapiens) (UniProt P08912)
T3 sequence (whole entry): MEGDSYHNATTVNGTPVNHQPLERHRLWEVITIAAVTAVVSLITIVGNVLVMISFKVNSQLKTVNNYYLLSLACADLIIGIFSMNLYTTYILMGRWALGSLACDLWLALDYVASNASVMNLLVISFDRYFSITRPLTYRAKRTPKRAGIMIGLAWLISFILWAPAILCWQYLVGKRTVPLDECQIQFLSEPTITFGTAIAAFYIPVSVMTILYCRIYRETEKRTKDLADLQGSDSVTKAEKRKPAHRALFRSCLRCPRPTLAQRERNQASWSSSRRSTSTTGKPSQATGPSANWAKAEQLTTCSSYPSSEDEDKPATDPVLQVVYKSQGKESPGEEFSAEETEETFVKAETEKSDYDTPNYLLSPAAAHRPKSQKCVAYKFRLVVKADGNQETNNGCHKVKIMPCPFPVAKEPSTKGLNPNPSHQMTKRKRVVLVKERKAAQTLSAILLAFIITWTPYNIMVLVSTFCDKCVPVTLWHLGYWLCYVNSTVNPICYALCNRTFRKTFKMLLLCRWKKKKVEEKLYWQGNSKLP
Description: PDSP Primary Binding target: CHRM5 - Compounds are tested at 10 uM concentration, plate are incubated at room temperature in the dark for 90 minutes. Reaction are stopped by vacuum filtration onto 0.3% polyethyleneimine soaked filter mats using Filtermate harvester. Scintilation cocktail is then melted onto microwave-dried filters on a hot plate and the radio activity is counted in Microbia counter.

[13] = target: T4, 5-hydroxytryptamine receptor 3A (Homo sapiens) (UniProt P46098)
T4 sequence (whole entry): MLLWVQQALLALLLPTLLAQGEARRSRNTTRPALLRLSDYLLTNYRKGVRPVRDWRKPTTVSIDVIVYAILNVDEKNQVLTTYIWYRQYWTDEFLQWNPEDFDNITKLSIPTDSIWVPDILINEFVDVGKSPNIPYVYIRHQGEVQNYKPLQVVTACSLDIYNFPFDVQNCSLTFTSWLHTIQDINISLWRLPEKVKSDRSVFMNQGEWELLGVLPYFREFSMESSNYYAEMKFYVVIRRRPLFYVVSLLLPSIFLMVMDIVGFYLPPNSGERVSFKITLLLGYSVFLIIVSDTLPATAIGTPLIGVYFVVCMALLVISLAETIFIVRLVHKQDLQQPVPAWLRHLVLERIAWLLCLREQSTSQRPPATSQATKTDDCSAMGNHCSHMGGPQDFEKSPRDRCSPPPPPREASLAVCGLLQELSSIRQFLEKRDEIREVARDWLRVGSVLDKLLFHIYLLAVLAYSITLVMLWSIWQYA
Description: PDSP Primary Binding target: HTR3A - Compounds are tested at 10 uM concentration, plate are incubated at room temperature in the dark for 90 minutes. Reaction are stopped by vacuum filtration onto 0.3% polyethyleneimine soaked filter mats using Filtermate harvester. Scintilation cocktail is then melted onto microwave-dried filters on a hot plate and the radio activity is counted in Microbia counter.

[14] = target: Sigma intracellular receptor 2 (Homo sapiens) (UniProt Q5BJF2)
Description: PDSP Primary Binding target: TMEM97 - Compounds are tested at 10 uM concentration, plate are incubated at room temperature in the dark for 90 minutes. Reaction are stopped by vacuum filtration onto 0.3% polyethyleneimine soaked filter mats using Filtermate harvester. Scintilation cocktail is then melted onto microwave-dried filters on a hot plate and the radio activity is counted in Microbia counter.

[15] = target: Beta-1 adrenergic receptor (Homo sapiens) (UniProt P08588)
Description: PDSP Primary Binding target: ADRB1 - Compounds are tested at 10 uM concentration, plate are incubated at room temperature in the dark for 90 minutes. Reaction are stopped by vacuum filtration onto 0.3% polyethyleneimine soaked filter mats using Filtermate harvester. Scintilation cocktail is then melted onto microwave-dried filters on a hot plate and the radio activity is counted in Microbia counter.

[16] = target: 5-hydroxytryptamine receptor 1D (Homo sapiens) (UniProt P28221)
Chain of 5-hydroxytryptamine receptor 1D (Homo sapiens) (P28221 whole entry): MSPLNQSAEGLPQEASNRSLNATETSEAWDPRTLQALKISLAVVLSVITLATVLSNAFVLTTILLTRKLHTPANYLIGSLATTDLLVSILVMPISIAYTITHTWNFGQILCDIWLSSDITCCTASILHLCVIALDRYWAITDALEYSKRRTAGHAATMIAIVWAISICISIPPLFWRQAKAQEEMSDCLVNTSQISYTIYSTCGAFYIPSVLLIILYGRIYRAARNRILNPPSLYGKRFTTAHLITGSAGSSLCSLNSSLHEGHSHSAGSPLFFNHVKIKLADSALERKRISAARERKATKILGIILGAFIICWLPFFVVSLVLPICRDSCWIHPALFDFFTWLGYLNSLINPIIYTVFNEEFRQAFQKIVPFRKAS
Description: PDSP Primary Binding target: HTR1D - Compounds are tested at 10 uM concentration, plate are incubated at room temperature in the dark for 90 minutes. Reaction are stopped by vacuum filtration onto 0.3% polyethyleneimine soaked filter mats using Filtermate harvester. Scintilation cocktail is then melted onto microwave-dried filters on a hot plate and the radio activity is counted in Microbia counter.

Chain of Beta-2 adrenergic receptor (Homo sapiens) (P07550 whole entry, looked up): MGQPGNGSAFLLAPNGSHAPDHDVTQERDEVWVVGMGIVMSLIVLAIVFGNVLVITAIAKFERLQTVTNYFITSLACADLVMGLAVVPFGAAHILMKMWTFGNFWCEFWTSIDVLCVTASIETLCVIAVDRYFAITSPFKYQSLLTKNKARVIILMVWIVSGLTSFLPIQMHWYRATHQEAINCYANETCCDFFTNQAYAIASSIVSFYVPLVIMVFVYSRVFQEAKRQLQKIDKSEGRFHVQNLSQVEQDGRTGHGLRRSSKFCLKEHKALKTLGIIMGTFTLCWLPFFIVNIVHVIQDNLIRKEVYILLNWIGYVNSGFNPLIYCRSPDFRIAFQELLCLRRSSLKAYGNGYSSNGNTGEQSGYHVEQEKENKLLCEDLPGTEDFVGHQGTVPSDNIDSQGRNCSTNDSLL
Chain of Mu-type opioid receptor (Homo sapiens) (P35372 whole entry): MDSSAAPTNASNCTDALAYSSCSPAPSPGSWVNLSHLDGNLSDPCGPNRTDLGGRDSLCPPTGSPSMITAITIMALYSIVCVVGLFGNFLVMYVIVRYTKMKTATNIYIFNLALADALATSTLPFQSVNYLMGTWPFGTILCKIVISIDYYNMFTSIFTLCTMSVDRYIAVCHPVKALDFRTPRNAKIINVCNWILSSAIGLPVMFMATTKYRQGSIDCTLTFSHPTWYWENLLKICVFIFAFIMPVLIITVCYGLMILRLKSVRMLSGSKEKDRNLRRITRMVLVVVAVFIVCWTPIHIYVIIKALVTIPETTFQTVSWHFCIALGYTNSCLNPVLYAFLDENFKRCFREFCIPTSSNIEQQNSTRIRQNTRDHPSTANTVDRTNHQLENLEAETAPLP
Chain of 5-hydroxytryptamine receptor 6 (Homo sapiens) (P50406 whole entry): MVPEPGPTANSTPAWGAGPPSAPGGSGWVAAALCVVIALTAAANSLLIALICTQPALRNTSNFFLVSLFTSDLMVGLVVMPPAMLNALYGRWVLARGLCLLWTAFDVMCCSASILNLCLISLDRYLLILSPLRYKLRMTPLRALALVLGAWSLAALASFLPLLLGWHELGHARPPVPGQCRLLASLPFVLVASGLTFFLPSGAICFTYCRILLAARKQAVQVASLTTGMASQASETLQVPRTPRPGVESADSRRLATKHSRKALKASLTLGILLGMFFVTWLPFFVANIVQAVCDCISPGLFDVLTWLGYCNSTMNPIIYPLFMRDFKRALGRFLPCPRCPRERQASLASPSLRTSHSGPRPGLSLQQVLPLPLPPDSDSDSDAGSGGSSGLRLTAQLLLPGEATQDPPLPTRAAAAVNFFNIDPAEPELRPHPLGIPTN
Chain of 5-hydroxytryptamine receptor 1E (Homo sapiens) (P28566 whole entry): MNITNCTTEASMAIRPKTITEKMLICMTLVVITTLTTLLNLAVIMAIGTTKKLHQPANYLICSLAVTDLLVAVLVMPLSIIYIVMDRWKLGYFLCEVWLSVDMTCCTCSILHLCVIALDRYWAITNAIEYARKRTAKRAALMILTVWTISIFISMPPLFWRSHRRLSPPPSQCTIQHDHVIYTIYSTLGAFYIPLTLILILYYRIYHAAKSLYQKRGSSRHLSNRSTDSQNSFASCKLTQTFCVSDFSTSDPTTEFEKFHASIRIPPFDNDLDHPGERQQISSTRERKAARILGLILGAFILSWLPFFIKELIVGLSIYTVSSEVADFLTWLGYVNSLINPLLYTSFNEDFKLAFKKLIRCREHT
Chain of Beta-3 adrenergic receptor (Homo sapiens) (P13945 whole entry, looked up): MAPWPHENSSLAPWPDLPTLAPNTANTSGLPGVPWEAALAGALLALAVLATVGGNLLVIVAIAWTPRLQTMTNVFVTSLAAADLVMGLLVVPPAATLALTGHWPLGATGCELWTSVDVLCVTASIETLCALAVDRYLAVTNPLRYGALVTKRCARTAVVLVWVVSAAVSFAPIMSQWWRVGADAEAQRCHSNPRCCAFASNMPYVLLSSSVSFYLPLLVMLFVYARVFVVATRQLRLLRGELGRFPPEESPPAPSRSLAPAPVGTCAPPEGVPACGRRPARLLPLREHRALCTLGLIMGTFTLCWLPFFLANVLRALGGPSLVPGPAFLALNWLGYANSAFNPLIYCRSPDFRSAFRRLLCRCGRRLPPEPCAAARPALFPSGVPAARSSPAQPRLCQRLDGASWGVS
Chain of 5-hydroxytryptamine receptor 2A (Homo sapiens) (P28223 whole entry): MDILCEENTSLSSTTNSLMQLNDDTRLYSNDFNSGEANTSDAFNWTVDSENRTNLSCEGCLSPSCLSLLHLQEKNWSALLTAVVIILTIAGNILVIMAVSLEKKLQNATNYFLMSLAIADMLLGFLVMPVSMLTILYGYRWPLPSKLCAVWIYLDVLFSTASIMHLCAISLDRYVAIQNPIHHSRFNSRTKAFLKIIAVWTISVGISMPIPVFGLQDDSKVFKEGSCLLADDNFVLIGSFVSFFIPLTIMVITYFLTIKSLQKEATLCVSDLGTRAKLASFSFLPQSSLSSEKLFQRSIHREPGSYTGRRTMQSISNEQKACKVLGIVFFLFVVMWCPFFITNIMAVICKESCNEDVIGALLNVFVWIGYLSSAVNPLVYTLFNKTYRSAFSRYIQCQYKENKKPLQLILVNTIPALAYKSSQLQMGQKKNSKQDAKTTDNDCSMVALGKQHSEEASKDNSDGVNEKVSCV
Chain of D(1A) dopamine receptor (Homo sapiens) (P21728 whole entry): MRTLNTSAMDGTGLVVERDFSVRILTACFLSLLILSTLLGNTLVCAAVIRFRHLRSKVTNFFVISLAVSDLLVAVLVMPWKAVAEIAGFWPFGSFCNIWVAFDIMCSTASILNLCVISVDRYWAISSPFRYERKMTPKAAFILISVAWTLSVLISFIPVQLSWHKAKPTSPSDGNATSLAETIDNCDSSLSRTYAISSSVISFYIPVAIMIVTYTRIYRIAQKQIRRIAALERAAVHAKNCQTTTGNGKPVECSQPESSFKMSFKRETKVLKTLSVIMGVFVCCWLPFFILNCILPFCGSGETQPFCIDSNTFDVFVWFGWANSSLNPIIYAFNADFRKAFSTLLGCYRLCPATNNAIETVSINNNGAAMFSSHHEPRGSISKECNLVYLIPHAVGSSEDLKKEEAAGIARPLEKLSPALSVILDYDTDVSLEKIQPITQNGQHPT
Chain of Sigma intracellular receptor 2 (Homo sapiens) (Q5BJF2 whole entry): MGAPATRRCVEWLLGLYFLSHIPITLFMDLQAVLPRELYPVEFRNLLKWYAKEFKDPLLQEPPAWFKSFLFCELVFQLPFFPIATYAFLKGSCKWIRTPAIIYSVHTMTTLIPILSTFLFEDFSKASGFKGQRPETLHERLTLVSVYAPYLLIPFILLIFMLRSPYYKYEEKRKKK
Chain of D(3) dopamine receptor (Homo sapiens) (P35462 whole entry): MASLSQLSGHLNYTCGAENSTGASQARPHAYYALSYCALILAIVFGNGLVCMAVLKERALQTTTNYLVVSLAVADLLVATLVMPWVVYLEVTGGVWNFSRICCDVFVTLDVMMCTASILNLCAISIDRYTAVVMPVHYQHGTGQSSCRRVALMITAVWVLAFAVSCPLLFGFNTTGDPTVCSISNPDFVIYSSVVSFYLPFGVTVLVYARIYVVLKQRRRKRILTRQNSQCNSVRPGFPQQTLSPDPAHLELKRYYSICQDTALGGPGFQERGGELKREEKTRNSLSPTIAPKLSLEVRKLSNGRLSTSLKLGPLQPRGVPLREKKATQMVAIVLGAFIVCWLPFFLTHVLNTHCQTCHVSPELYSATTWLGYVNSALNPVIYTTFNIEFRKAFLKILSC
Chain of 5-hydroxytryptamine receptor 2B (Homo sapiens) (P41595 whole entry): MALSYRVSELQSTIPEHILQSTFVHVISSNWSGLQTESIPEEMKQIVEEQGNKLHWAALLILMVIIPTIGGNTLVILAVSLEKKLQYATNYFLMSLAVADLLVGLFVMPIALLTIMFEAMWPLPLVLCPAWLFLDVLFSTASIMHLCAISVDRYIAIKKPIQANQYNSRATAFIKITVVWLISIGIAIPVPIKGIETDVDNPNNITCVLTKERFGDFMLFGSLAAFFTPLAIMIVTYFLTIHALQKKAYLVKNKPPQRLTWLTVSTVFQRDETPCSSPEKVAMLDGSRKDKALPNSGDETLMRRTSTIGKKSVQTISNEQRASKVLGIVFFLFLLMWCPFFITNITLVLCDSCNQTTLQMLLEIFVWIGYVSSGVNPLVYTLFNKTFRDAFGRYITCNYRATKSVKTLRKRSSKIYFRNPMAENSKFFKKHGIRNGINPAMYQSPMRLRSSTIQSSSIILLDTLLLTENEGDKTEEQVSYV
Chain of Beta-1 adrenergic receptor (Homo sapiens) (P08588 whole entry, looked up): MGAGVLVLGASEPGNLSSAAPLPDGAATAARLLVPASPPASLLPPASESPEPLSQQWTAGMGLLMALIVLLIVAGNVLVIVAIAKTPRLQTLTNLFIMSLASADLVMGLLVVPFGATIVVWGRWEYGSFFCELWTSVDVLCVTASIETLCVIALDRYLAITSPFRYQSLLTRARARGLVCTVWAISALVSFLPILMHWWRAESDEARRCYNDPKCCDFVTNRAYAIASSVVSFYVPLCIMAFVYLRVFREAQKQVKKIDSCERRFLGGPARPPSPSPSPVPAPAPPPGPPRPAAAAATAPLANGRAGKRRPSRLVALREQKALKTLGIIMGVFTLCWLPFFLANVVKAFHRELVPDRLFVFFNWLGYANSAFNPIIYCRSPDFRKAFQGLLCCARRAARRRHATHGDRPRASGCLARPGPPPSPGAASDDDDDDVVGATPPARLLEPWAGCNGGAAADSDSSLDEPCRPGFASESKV

SMILES	inhibition [1] [%]	inhibition [2] [%]	inhibition [3] [%]	inhibition [4] [%]	inhibition [5] [%]	inhibition [6] [%]	inhibition [7] [%]	inhibition [8] [%]	inhibition [9] [%]	inhibition [10] [%]	inhibition [11] [%]	inhibition [12] [%]	inhibition [13] [%]	inhibition [14] [%]	inhibition [15] [%]	inhibition [16] [%]
Cc1cc(C)cc(C(=O)N(C)[C@H](Cc2ccc(-c3ccccc3)cc2)C(=O)N[C@@H](Cc2c[nH]c3ccccc23)C(=O)O)c1	-8.09	3.37	12.5	3.03	31.2	-6.62	-1.4	34.4								
O=C(O)CC/C=C\C[C@@H]1CO[C@H](c2ccccc2Cl)O[C@@H]1c1ccccc1O		-6.03		40	3.61		8.82	29.5	-0.4	-6.67	-3.05					
C[C@H](NC[C@H](O)CP(=O)(O)CC1CCCCC1)c1ccc(Cl)c(Cl)c1		-1.65	8.07	19.5	-0.59	0.95	60.4	38.3		-8.21	2.61	16.6	6.3	26.7		
COC(=O)C1=C(C)NC(C)=C(C(=O)OCCCN2CCC(c3ccccc3)(c3ccccc3)CC2)[C@H]1c1cccc([N+](=O)[O-])c1	90.1	22.1	30.9	81.8	-1.08	83.2	92		80.7	40	71.6	89.6	43.2	98.7	31.8	75.9
O=C(Cc1ccccc1)Nc1nc2ccc(Cl)cc2c2nc(-c3ccco3)nn12	3.62	2.33	5.61	30.2	16.8	-0.19	17.8	-9.26		7.51	-2.97	-3.93		-6.83		
Cc1cc(C(=O)N2Cc3cnn(C)c3Nc3ccccc32)ccc1CNC(=O)N1CCC[C@H]1C(=S)N1CCCN(C)CC1	13.1	-1.47	49.6	87.3	9.68	18.3	12.3	-2.29	-3.37	4.73		83.3	25.9	-1.48		
CC(C)NCC(O)c1ccc(N)c(C#N)c1 (centres undefined)	-5.25	95.5	-2.53	-2.07	9.46			59.9	-2.82	32.7	18	-0.9		29.6		
